PubChem BioAssay (NCI)
Several values for one entry are separate records, joined by “and”; a condition that tells them apart may be missing. Equal values may be shown once.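 How tested: cells in 96-well plates exposed to compound for 48 hours at five concentrations. Abbreviation: GI50, concentration required for 50% inhibition of growth. TGI marks complete inhibition of growth.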

Legend:
Test in all cases: DTP human tumour cell line panel, 48 h
SK-MEL-2 melanoma = test system: SK-MEL-2 melanoma
HOP-92 NSCLC = test system: HOP-92 NSCLC
LOX IMVI melanoma = test system: LOX IMVI melanoma
CAKI-1 renal = test system: CAKI-1 renal
TK-10 renal = test system: TK-10 renal
IGROV1 ovarian = test system: IGROV1 ovarian
SK-MEL-5 melanoma = test system: SK-MEL-5 melanoma
HT29 colon = test system: HT29 colon
DU-145 prostate = test system: DU-145 prostate
MCF7 breast = test system: MCF7 breast

O=c1cc(-c2ccccc2)[nH]c2c(F)ccc(F)c12
TGI (SK-MEL-2 melanoma): 77.1 µM | TGI (HOP-92 NSCLC): > 100 µM | TGI (LOX IMVI melanoma): > 100 µM | TGI (CAKI-1 renal): > 100 µM | TGI (TK-10 renal): > 100 µM | TGI (IGROV1 ovarian): > 100 µM | TGI (SK-MEL-5 melanoma): > 100 µM | TGI (HT29 colon): > 100 µM

CC1CN=C(N(C(=O)Nc2ccccc2)C2CCCCC2)S1 (stereo not given)
TGI (SK-MEL-2 melanoma): 29.5 µM | TGI (LOX IMVI melanoma): 27.1 µM | TGI (CAKI-1 renal): 31.2 µM | TGI (TK-10 renal): 37 µM | TGI (DU-145 prostate): 69.7 µM | TGI (MCF7 breast): 31.8 µM | TGI (IGROV1 ovarian): 35.6 µM | TGI (SK-MEL-5 melanoma): 28.4 µM | TGI (HT29 colon): 32.9 µM

N#Cc1c(NC(=S)Nc2ccccc2)sc2c1CCCC2
TGI (SK-MEL-2 melanoma): > 100 µM | TGI (LOX IMVI melanoma): > 100 µM | TGI (CAKI-1 renal): > 100 µM | TGI (TK-10 renal): > 100 µM | TGI (DU-145 prostate): > 100 µM | TGI (MCF7 breast): > 100 µM | TGI (IGROV1 ovarian): > 100 µM | TGI (SK-MEL-5 melanoma): > 100 µM | TGI (HT29 colon): > 100 µM

CC(=O)c1c2c(cc3c1CCC3)CCC2
TGI (SK-MEL-2 melanoma): > 100 µM | TGI (LOX IMVI melanoma): > 100 µM | TGI (CAKI-1 renal): > 100 µM | TGI (TK-10 renal): > 100 µM | TGI (DU-145 prostate): > 100 µM | TGI (MCF7 breast): > 100 µM | TGI (IGROV1 ovarian): > 100 µM | TGI (SK-MEL-5 melanoma): > 100 µM | TGI (HT29 colon): > 100 µM

Cc1cnc2cc(Cl)ccc2c1SCC(=O)O
TGI (SK-MEL-2 melanoma): > 100 µM | TGI (HOP-92 NSCLC): > 100 µM | TGI (LOX IMVI melanoma): > 100 µM | TGI (CAKI-1 renal): > 100 µM | TGI (TK-10 renal): > 100 µM | TGI (DU-145 prostate): > 100 µM | TGI (IGROV1 ovarian): > 100 µM | TGI (SK-MEL-5 melanoma): > 100 µM | TGI (HT29 colon): > 100 µM

CCC(C)Cn1c(C)nc2c1C(=O)c1ccccc1C2=O (stereo not given)
TGI (SK-MEL-2 melanoma): 76.5 µM | TGI (HOP-92 NSCLC): 78.9 µM | TGI (LOX IMVI melanoma): 66.7 µM | TGI (TK-10 renal): > 100 µM | TGI (IGROV1 ovarian): > 100 µM | TGI (SK-MEL-5 melanoma): 29.6 µM | TGI (HT29 colon): > 100 µM

CC1[C@@H]2C[C@@H]3O[C@@]34[C@H]3CCC5Cc6nc7c(nc6C[C@@]5(C)C3(O)CC(=O)[C@@]24CO[C@]12OC(C)(C)CC2O)CC1CC[C@@H]2C3=C[C@H]4O[C@@]5(O[C@@](C)(CO)C[C@@H]5O)C(C)[C@@]4(O)[C@]3(C)[C@@H](O)CC2[C@]1(C)C7 (stereo not given in full)
TGI (SK-MEL-2 melanoma): 0.863 µM | TGI (HOP-92 NSCLC): 0.976 µM | TGI (LOX IMVI melanoma): > 3.52 µM | TGI (CAKI-1 renal): > 3.52 µM | TGI (MCF7 breast): > 3.52 µM | TGI (IGROV1 ovarian): > 3.52 µM | TGI (SK-MEL-5 melanoma): > 3.52 µM | TGI (HT29 colon): 0.0945 µM

CN(C)CC(C)(C)C(=O)/C=C/c1ccccc1
TGI (HOP-92 NSCLC): 24.5 µM | TGI (LOX IMVI melanoma): 25.6 µM | TGI (CAKI-1 renal): 40.3 µM | TGI (TK-10 renal): 32.1 µM | TGI (IGROV1 ovarian): 59.7 µM | TGI (SK-MEL-5 melanoma): 30.1 µM | TGI (HT29 colon): 33.9 µM

COc1cccc2c1C(=O)c1c(O)c3c(c(O)c1C2=O)C[C@@](O)(C(=O)CO)CC3OC1CC(NCCCCC(OC(C)=O)OC(C)=O)C(O)C(C)O1 (stereo not given in full)
GI50 (SK-MEL-2 melanoma): 0.00171 µM | TGI (SK-MEL-2 melanoma): 0.00435 µM and 0.00331 µM | GI50 (HOP-92 NSCLC): 0.00286 µM | TGI (HOP-92 NSCLC): 0.00682 µM and 0.0079 µM | GI50 (LOX IMVI melanoma): 0.000488 µM | TGI (LOX IMVI melanoma): 0.00829 µM and 0.0302 µM | TGI (CAKI-1 renal): 0.00812 µM | TGI (TK-10 renal): > 1 µM | GI50 (IGROV1 ovarian): 0.00355 µM | TGI (IGROV1 ovarian): > 1 µM | GI50 (SK-MEL-5 melanoma): 0.00152 µM | TGI (SK-MEL-5 melanoma): 0.00341 µM | GI50 (HT29 colon): 0.00103 µM | TGI (HT29 colon): 0.0125 µM

C=C1CC2C[C@H](OS(=O)(=O)c3ccc(C)cc3)C(C1)N2C (stereo not given in full)
TGI (SK-MEL-2 melanoma): > 100 µM | TGI (LOX IMVI melanoma): > 100 µM | TGI (CAKI-1 renal): > 100 µM | TGI (TK-10 renal): > 100 µM | TGI (DU-145 prostate): > 100 µM | TGI (MCF7 breast): > 100 µM | TGI (IGROV1 ovarian): > 100 µM | TGI (SK-MEL-5 melanoma): > 100 µM | TGI (HT29 colon): > 100 µM

CN(C)CCSc1nccc(-c2ccc(-c3ccnc(SCCN(C)C)n3)s2)n1
TGI (SK-MEL-2 melanoma): 29.5 µM | TGI (HOP-92 NSCLC): 28.1 µM | TGI (LOX IMVI melanoma): 11.9 µM | TGI (CAKI-1 renal): 33.1 µM | TGI (MCF7 breast): 16.9 µM | TGI (IGROV1 ovarian): 28.8 µM | TGI (SK-MEL-5 melanoma): 31 µM | TGI (HT29 colon): 10.3 µM

CCOC(=O)c1sc2[n+](c1C)C(=O)/C(=C/c1ccccc1Cl)S2
TGI (SK-MEL-2 melanoma): > 74.7 µM | TGI (LOX IMVI melanoma): 19.1 µM | TGI (CAKI-1 renal): 24.5 µM | TGI (TK-10 renal): 57 µM | TGI (DU-145 prostate): > 35.6 µM | TGI (MCF7 breast): 15 µM | TGI (IGROV1 ovarian): 23.3 µM | TGI (SK-MEL-5 melanoma): 1.89 µM | TGI (HT29 colon): 28.9 µM

c1ccc(C2C3=C(CCCC3)Nc3nnnn32)cc1 (stereo not given)
TGI (SK-MEL-2 melanoma): > 100 µM | TGI (LOX IMVI melanoma): > 100 µM | TGI (CAKI-1 renal): > 100 µM | TGI (DU-145 prostate): > 100 µM | TGI (MCF7 breast): > 100 µM | TGI (IGROV1 ovarian): > 100 µM | TGI (SK-MEL-5 melanoma): > 100 µM

COc1cc(OC)cc(-c2nc3ccccc3c(=O)[nH]2)c1
TGI (SK-MEL-2 melanoma): > 100 µM | TGI (HOP-92 NSCLC): > 100 µM | TGI (LOX IMVI melanoma): > 100 µM | TGI (CAKI-1 renal): > 100 µM | TGI (TK-10 renal): > 100 µM | TGI (DU-145 prostate): > 100 µM | TGI (IGROV1 ovarian): > 100 µM | TGI (SK-MEL-5 melanoma): > 100 µM | TGI (HT29 colon): > 100 µM

CC(=O)O[C@H]1CC[C@]2(C=O)[C@H]3CC[C@]4(C)[C@@H](C5=CC(=O)OC5)CC[C@]4(O)[C@@H]3CC[C@]2(O)C1
TGI (SK-MEL-2 melanoma): 1.08 µM | TGI (HOP-92 NSCLC): 2.76 µM | TGI (LOX IMVI melanoma): 0.933 µM | TGI (CAKI-1 renal): 0.06 µM | TGI (TK-10 renal): 0.93 µM | TGI (DU-145 prostate): 0.391 µM | TGI (IGROV1 ovarian): 3.99 µM | TGI (SK-MEL-5 melanoma): 0.473 µM | TGI (HT29 colon): 1.05 µM

Cc1cccc(-c2cc(=O)c3cc(C)cnc3[nH]2)c1
TGI (SK-MEL-2 melanoma): > 100 µM | TGI (HOP-92 NSCLC): > 100 µM | TGI (LOX IMVI melanoma): > 100 µM | TGI (CAKI-1 renal): > 100 µM | TGI (TK-10 renal): > 100 µM | TGI (DU-145 prostate): 13.3 µM | TGI (IGROV1 ovarian): > 100 µM | TGI (SK-MEL-5 melanoma): 21 µM

Cc1cc(N)c2cc(NC(=O)CCCCCCCCC(=O)Nc3ccc4nc(C)cc(N)c4c3)ccc2n1
TGI (SK-MEL-2 melanoma): > 100 µM | TGI (HOP-92 NSCLC): 80.3 µM | TGI (LOX IMVI melanoma): > 100 µM | TGI (CAKI-1 renal): > 100 µM | TGI (TK-10 renal): > 100 µM | TGI (IGROV1 ovarian): > 100 µM | TGI (SK-MEL-5 melanoma): > 100 µM | TGI (HT29 colon): > 100 µM

COc1ccc(Cn2nc(OCc3ccccc3)c3cc([N+](=O)[O-])ccc32)cc1
TGI (SK-MEL-2 melanoma): > 100 µM | TGI (LOX IMVI melanoma): > 100 µM | TGI (TK-10 renal): > 100 µM | TGI (DU-145 prostate): > 100 µM | TGI (MCF7 breast): > 100 µM | TGI (IGROV1 ovarian): > 100 µM | TGI (SK-MEL-5 melanoma): > 100 µM | TGI (HT29 colon): > 100 µM
